Results taken from a melting point compilation (Tetko et al.; mined from patent text by program, amines drawn as free bases though some values may be those of a salt).

| Compound | melting point |
| --- | --- |
| COc1ccc(CCCC(=O)NC(NC(=NC#N)Nc2cccnc2C)C(C)(C)C)cc1 (stereo not drawn) | 65 to 68 °C |
| CN(C)CCC1=Cc2ccc(OCc3ccc(-c4ccccc4)cc3)cc2CC1 | 123 to 126 °C |
| O=C(O)CCc1cc(CCN2CCC(C(=O)c3ccc(F)cc3)CC2)cc2c1CCC(NS(=O)(=O)c1ccc(Cl)cc1)C2 (stereo not drawn) | 210 °C |
| COc1cc2c3c(Br)cc(OC)c(OC)c3n(C(=O)c3ccc(C(C)(C)C)cc3)c2cc1OC | 136 to 138 °C |
| CC(=NNC(=N)N)c1sc(-c2ccccc2)nc1C | 195 to 196 °C |
| CCN(CC)c1ccc(C(=O)OC)nc1 | 52 to 53.5 °C |
| COC(=O)CCc1ccc(N(c2ccc(-c3ccc(N(c4ccc(CCC(=O)OC)cc4)c4cccc5ccccc45)cc3)cc2)c2cccc3ccccc23)cc1 | 117 to 120 °C |
| O=C(NOCC(O)CO)c1ccc(F)c(F)c1Nc1ccccc1F (stereo not drawn) | 113 to 115 °C |
| NCC1c2ccccc2C=Cc2ccccc21 | 95 to 96.5 °C |
| COC(=O)C1=C(C)NC(c2ncsc2Cl)=NC1c1ccc(F)cc1Cl (stereo not drawn) | 98 to 100 °C |
| CC(=O)c1cc(S(=O)(=O)N(C)C)ccc1O | 115 to 116 °C |
| CN=C(ON1C(=O)c2ccccc2C1=O)c1ccccc1 | 174 to 176 °C |
| O=C(COC1CCCCCCCCCCC1)C1=C(O)CSC1=O | 93 to 95 °C |
| Cn1nc(C(F)F)[nH]c1=O | 141 °C |
| CNc1nc(-c2cccc(NC(=O)c3ccc(Cl)nc3)c2)c2cc(OC)c(OC)cc2n1 | 157 to 159 °C |
| CCCCCCCN(C)C(=O)Nc1ccc(F)cc1NC(=O)c1cc(C(C)(C)C)c(O)c(C(C)(C)C)c1 | 164 to 167 °C |
| Cc1ccc(-c2nc3ccccc3nc2-c2ccc(C)cc2)cc1 | 149 °C |
| CCCCc1nc(Cl)c(CC=CO)n1Cc1ccc(NC(=O)c2ccccc2C(=O)O)cc1 | 150 to 151 °C |
| Cn1c(CNc2ccc(Oc3cccc(C(F)(F)F)c3)cc2)nc([N+](=O)[O-])c1C#N | 124 to 126 °C |
| CCOC(=O)c1ccc2c(c1)N(CCN(C)C)C(=O)c1cc(C(C)C)cc(C(C)C)c1O2 | 97 to 98 °C |
| CC(C)Cc1cc(-c2cccc(C=O)c2)c(S(=O)(=O)NC(C)(C)C)s1 | 96 to 98 °C |
| NC(=O)CN1CC2C=CC1C2 (stereo not drawn) | 74 to 96 °C |
| CCCCCCCCCCCc1ccc(CCCC(N)(CO)CCO)cc1 (stereo not drawn) | 73 to 76 °C |
| O=C(O)c1cccc2c(=O)c3cc(I)ccc3[nH]c12 | 355 to 357 °C |
| CCCCCCCCCCCCc1ccccc1C(SCC(=O)O)C(=O)O (stereo not drawn) | 65 to 66 °C |

| Compound | melting point |
| --- | --- |
| CCCOc1ccc(S(=O)(=O)N2CC[C@@H](N(C)C)C2)cc1-c1nc2cc3ncn(Cc4ccc(F)cc4)c3cc2c(=O)[nH]1 | 223 to 225 °C |
| CCOC(=O)c1c(N)[nH]c2cccc(Cl)c12 | 140 to 142 °C |
| COCCNC(=O)c1cnc(C(=O)O)c(OC)c1 | 160 to 161 °C |
| O=c1ccn(CCOCc2ccccc2)c(C(O)c2ccccc2)c1OCc1ccccc1 (stereo not drawn) | 154 to 155 °C |
| CC(C)c1oc(-c2ccc(F)cc2)nc1CC(=O)O | 137 to 138 °C |
| C=CCOc1cccc(C(=O)c2ccccc2C(=O)OC)c1 | 50 to 52 °C |
| O=C1C2=C(CCCC2)C(=O)N1c1ccc(Br)cc1F | 102 °C |
| Cc1c(C)n(Cc2ccccc2)c(=O)n(CCCCl)c1=O | 72 to 74 °C |
| CC(C)NC1=NS(=O)(=O)c2cc(Br)cc(Br)c2N1 | 306 to 311 °C |
| O=C(Nc1ccc(Oc2ccccc2)cc1)Nc1ccc(C(F)(F)F)cc1 | 211 to 213 °C |
| Clc1cc2nc(Cl)n(Cc3ccccc3)c2cc1Cl | 175 to 176 °C |
| COCc1[nH]c(=O)c(C#N)c2c1CC(C)CC2 (stereo not drawn) | 205 to 208 °C |
| O=C(O)c1ccccc1Oc1ccc(C(F)(F)F)cc1NS(=O)(=O)c1ccc(Cl)cc1 | 164 °C |
| CS(=O)(=O)c1ccc(-c2sc(-c3ccncc3)nc2-c2ccc(F)cc2)cc1 | 171 to 176 °C |
| CCOC(=O)C=Cc1cc([N+](=O)[O-])cc2c1CCCC2 | 95 to 96 °C |
| CCOc1nn(Cc2ccc(Cl)cc2Cl)cc1CCCOc1cc(CCC(=O)O)n(Cc2ccccc2)n1 | 84 to 85 °C |
| O=C1C=C(NC(=O)C(=O)c2cn(Cc3ccc(Cl)cc3)c3ccc(Cl)cc23)CO1 | 251 to 253 °C |
| COCCOc1cc(OCCN2CCCC2)c2c(=O)[nH]c(-c3cc(C)nc(C)c3)nc2c1 | 60.4 to 62.3 °C |
| COC(=O)c1cc(SCc2ccsc2)c(Oc2ccccc2)c(S(N)(=O)=O)c1 | 148 to 149 °C |
| Cc1cccc(COc2cccc(OCc3ccc4ccccc4n3)c2)c1OCC(=O)O | 154 to 157 °C |
| CC12CC(=O)C3C(CCC4CC(O)CCC43C)C1CCC2C(=O)CBr (stereo not drawn) | 160 to 163 °C |
| CCCSc1nc(NC2CC2c2cccc(N)c2)c2nnn(C3CC(O)C(O)C3O)c2n1 (stereo not drawn) | 105 to 107 °C |
| CO/C=C(/C(=O)OC)c1ccccc1Oc1cc(OCc2ccc([N+](=O)[O-])cc2)ncn1 | 96 to 98 °C |
| OC/C=C/C=C/c1ccc(OCC(F)(F)C(F)F)cc1 | 95 to 97 °C |
| COc1cccc(Cn2c(C(=O)O)c(-c3ccc(OCC4CC4)cc3)c3cc(OCc4ccccc4)ccc32)c1 | 185 to 187 °C |

| Compound | melting point |
| --- | --- |
| CC(C)C(=O)Nc1cc([N+](=O)[O-])c(Sc2cccc3cnccc23)cc1N | 219 to 221 °C |
| N#Cc1ccc(OCc2cccc(F)c2)cc1 | 104 to 105 °C |
| Nc1nc2ccccc2c2c1nc(CO)n2CC1(O)CCCCC1 | 244 to 248 °C |
| CC1=C(CC2=CC(=O)C=CC2=O)C(=O)C2C=CC=CC2C1=O (stereo not drawn) | 142 to 144 °C |
| O=C1CNC(=O)N1Cc1ccc2c(c1)N(C1CCN(CCc3ccc(F)cc3)CC1)CC2 | 191 to 193 °C |
| COc1ccc(C(=O)O)cc1NC(=O)c1cc(C(C)(C)C)c(O)c(C(C)(C)C)c1 | 259 to 261 °C |
| C[C@]1(O)c2ccccc2CC[C@H]1O (relative stereo) | 75 °C |
| CC(=O)n1nc(-c2cc(C(C)(C)C)c(O)c(C(C)(C)C)c2)c2cccnc21 | 169 to 171 °C |
| Cc1c(C)c(N2CCN(c3ccc(C(N)=O)cc3)CC2)c(C)c2c1OC(C)C2 (stereo not drawn) | 240 to 245 °C |
| Nc1cccc(-c2ccc(CCNCCCCCc3ccccc3)cc2)n1 | 60 to 70 °C |
| Cc1ccc(S(=O)(=O)OCCc2cc3c4ccccc4[nH]c(=O)n3n2)cc1 | 194 to 196 °C |
| CCCC(C)C(=O)Oc1c(I)cc(I)cc1I (stereo not drawn) | 66 to 68 °C |
| COc1ccc2[nH]cc(CC(=O)N3CCN(c4ccc([N+](=O)[O-])cc4)CC3)c2c1 | 239 to 240 °C |
| CCOC(=O)Nc1cccc2c1CN(C)CC2c1ccc(Cl)cc1 (stereo not drawn) | 155 °C |
| O=c1[nH]c2ccccc2n1CCN1CCN(c2cc(C(F)(F)F)ccc2O)CC1 | 158 to 160 °C |
| O=c1c(O)c(-c2ccc[nH]2)oc2ccccc12 | 201 to 203 °C |
| CS(=O)(=O)Nc1ccc(C=O)cc1F | 151 °C |
| CCOC(=O)c1c(C(F)(F)F)ncc(C(=O)O)c1OC(C)C | 97 to 99 °C |
| CCOC(=O)/C=C/c1cn(C)c2ccccc12 | 94 to 98 °C |
| CCCCCN1Cc2cccc(S(=O)(=O)NC(=O)Nc3nc(OC)cc(OC)n3)c2S1(=O)=O | 197 to 203 °C |
| CCOC(=O)c1cc(-c2ccccc2)oc1C(F)(F)F | 44 to 45 °C |
| COC(=O)c1cc(N(C)C)c(C(C)(C)C)c(N(C)C)c1 | 80 to 82 °C |
| CC1Cc2ccc([Si](C)(C)C)c(S(N)(=O)=O)c2S1(=O)=O (stereo not drawn) | 171 to 172 °C |
| COC(=O)c1ccc(C#CCc2cccc3c2SCCC3(C)C)cc1 | 92 °C |
| CC(O)C1CCC(CNC(=O)OCc2ccccc2)CC1 (stereo not drawn) | 83 to 84 °C |

| Compound | melting point |
| --- | --- |
| CC(C)(C)OC(=O)CC[C@H](NC(=O)c1ccc(N(CCCl)CCCl)cc1F)C(=O)OC(C)(C)C | 90 to 92 °C |
| CC1SC(=O)NN=C1c1cccc(N)c1 (stereo not drawn) | 167 to 170 °C |
| Cc1cccc(NC(=O)NC2CN(C(=O)C3CCCCC3)c3ccccc3N(CC(=O)c3ccccc3C)C2=O)c1 (stereo not drawn) | 148 to 151 °C |
| COc1ccc(-n2c(=O)c3c(c4cccnc42)OCC3)cc1 | 282 to 284 °C |
| COc1cc(Cl)cc(COc2cccc(OCc3ccc4ccccc4n3)c2)c1OCC(=O)O | 185 to 190 °C |
| CC1=NN=C(c2ccc([N+](=O)[O-])cc2)c2cc(Br)ccc2C1 | 200 to 205 °C |
| COC(=O)/C=C/c1cccc(Br)c1 | 53 to 55 °C |
| Cc1oc2c(C)c(C)c(NC(=O)c3ccccc3)c(C)c2c1-c1ccc(C(C)C)cc1 | 225 to 227 °C |
| CC(=O)SCCCc1ccc(C2OCC(C)(C)CO2)cc1 | 44 °C |
| O=c1[nH]cnc2cccc(Br)c12 | 239 to 240 °C |
| CC(C)(C)c1ccc(C[C@@H](NC(=O)c2cccc3c(F)cccc23)[C@@H](O)c2ccc(F)cc2)cc1 (racemic) | 148 to 149 °C |
| O=C(Nc1ccc2ccccc2c1-c1c(P(=O)(c2ccccc2)c2ccccc2)ccc2ccccc12)c1ccccc1 | 247 °C |
| CCOc1cc(C(=CC#N)c2ccc3c(c2)nnn3C)ccc1OC | 180 to 182 °C |
| Clc1nc(-c2ccco2)nc2ccccc12 | 116 to 118 °C |
| COc1ccc(OCC2(CO)CC2)cc1 | 80 to 81 °C |
| CN(C1CCN(CCC(F)(F)F)CC1)S(=O)(=O)c1ccc(Nc2nccc(Nc3ccc(F)c(F)c3)n2)cc1 | 202 to 203 °C |
| CC(C)(C)c1c(-c2ccc(S(C)(=O)=O)cc2)cnn(-c2ccc(F)c(F)c2)c1=O | 158 to 161 °C |
| Cc1cc(Cl)nc2nc(N3C(=O)c4ccccc4C3CC(=O)N3CCC4(CC3)OCCO4)ccc12 (stereo not drawn) | 259 to 262 °C |
| CCOC(=O)c1cc2c(O)nncc2nc1NC | 290 to 292 °C |
| O=c1[nH]c(N[N+](=O)[O-])ncc1Cc1ccncc1 | 228 to 229 °C |
| Cc1cc(OS(=O)(=O)c2c(F)cccc2F)cc2c(C3CCN(C)CC3)cn(C)c12 | 139 °C |
| CCOC(=O)C1Cc2c([nH]c3ccc(C)cc23)C(c2ccccc2)N1 (stereo not drawn) | 128 to 130 °C |
| CCOC(=O)N1C[C@H](O)C[C@H]1CCOc1ccc(Br)cc1CCc1ccccc1 | 63 to 66 °C |
